{
  "source": "patent US5998173A",
  "about": "“Process for producing N-acetyl-D-glucosamine” (The University of Bristish Columbia, priority 1996, dated 1999)",
  "key": {"[1]": {"test_system": "Serratia marcescens QM B1466 chitinases (total chitinase activity, EC 3.2.1.14) in culture supernatant", "assay": "Chitinase activity assay with pNP-(NAG)2 in the presence of increasing N-acetyl-D-glucosamine (end-product inhibition)", "format": "biochemical", "details": "40-mM NAG in the assay media, p-nitrophenyl substrate analog, 10 min", "experimental": "(§1) FIG. 15a illustrates assays of chitinase (.box-solid.) and chitobiase (.diamond-solid.) in the presence of increasing amounts of N-acetyl-D-glucosamine (NAG). The activity values are expressed as percentage of the initial uninhibited values ([NAG]=0).\nChitinase activity was also determined by using the analog p-nitrophenyl-β-D-N,N'-diacetylchitobiose (pNP-(NAG)2) (Sigma). The assay was performed in triplicate using ELISA plates and contained 50 μL of 100 mM KH2 PO4 buffer containing 1-mM CaCl2 at pH 6.0, 50 μL of pNP(NAG)2 dissolved in nanopure water (400 μg/ml) and 20 μL of enzyme diluted in the same buffer. After 10 minutes of incubation samples were read at 405 nm using an ELISA plate reader. Blanks were used to discount any absorption due to the enzyme or pNP-(NAG)2 alone. The μmoles of p-nitrophenol released by the samples was calculated using a standard curve. Units of enzymatic activity were determined as the number of μmoles of p-nitrophenol released per minute under the assay conditions.\nEnd-product inhibition was tested using p-nitrophenyl substrate-analogs to assay chitinase and chitobiase activities in the presence of increasing concentrations of N-acetyl-D-glucosamine (NAG). The results shown in FIG. 15a indicate that both activities in culture supernatant are inhibited by the end product (NAG). […]"}, "[2]": {"molecular_target": "T1, Serratia marcescens QM B1466 chitobiase (EC 3.2.1.29) in culture supernatant (Serratia marcescens, UniProt Q54468)", "T1 construct": "assaying chitobiase activity in S. marcescens culture supernatant over a wide range of substrate concentrations; endogenous in cells; host or cells: Serratia marcescens QM B1466, grown on chitin; enzyme in culture supernatant, not purified", "T1 sequence (Q54468 28-885)": "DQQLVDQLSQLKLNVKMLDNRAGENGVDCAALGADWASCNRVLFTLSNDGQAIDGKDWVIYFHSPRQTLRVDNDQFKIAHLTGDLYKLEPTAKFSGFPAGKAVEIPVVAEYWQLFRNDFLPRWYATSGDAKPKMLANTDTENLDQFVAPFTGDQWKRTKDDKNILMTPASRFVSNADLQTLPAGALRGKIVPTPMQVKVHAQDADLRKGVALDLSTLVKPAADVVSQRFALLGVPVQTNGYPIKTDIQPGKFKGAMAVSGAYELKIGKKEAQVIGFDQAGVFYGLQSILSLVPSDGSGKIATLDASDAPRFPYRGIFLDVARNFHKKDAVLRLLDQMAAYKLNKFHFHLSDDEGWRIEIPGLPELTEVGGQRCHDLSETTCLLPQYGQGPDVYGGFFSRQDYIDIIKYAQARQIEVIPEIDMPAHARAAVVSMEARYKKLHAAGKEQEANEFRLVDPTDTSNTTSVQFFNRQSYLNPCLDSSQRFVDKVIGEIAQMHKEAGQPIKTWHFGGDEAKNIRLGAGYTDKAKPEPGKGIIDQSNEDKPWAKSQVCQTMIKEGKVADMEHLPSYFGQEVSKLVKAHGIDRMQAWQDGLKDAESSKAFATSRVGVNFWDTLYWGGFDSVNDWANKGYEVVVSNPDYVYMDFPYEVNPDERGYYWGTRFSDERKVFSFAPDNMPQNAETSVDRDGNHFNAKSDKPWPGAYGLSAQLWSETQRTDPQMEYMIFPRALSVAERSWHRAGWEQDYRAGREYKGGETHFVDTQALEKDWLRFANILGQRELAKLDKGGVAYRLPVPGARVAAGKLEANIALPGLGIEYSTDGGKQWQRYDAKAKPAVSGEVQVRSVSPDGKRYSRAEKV", "assay": "Chitobiase activity assay with pNP-NAG in the presence of N-acetyl-D-glucosamine (end-product inhibition, Eadie-Hofstee analysis)", "format": "biochemical", "from_the_text": "as §1\nFIG. 15b illustrates assays of chitobiase from S. marcescens crude extracts using a range of p-nitrophenyl N-acetyl-β-D-glucosaminide concentrations with or without the addition of a fixed amount of N-acetyl-D-glucosamine (NAG). (.box-solid.) 0.00 mM NAG; (.circle-solid.) 0.21 mM NAG; (Δ) 0.42 mM NAG; (.gradient.) 0.83 mM NAG; and (.diamond-solid.) 1.67 mM NAG.\nChitobiase activity was determined by measuring the amount of p-nitrophenolreleased when an aliquot of enzyme solution (culture supernatant) was incubated with an aqueous solution of p-nitrophenyl-N-acetyl-β-D-glucosamine (pNP-NAG) (Sigma). The buffer used in this assay was 85-mM Tris(hydroxymethylaminomethane)-malate, pH 7.0. […] The liberated p-nitrophenol was spectrophotometrically measured at 405 nm in an ELISA plate reader. […]\nThe nature of chitobiase inhibition by N-acetyl-D-glucosamine was determined by assaying chitobiase activity in S. marcescens culture supernatant over a wide range of substrate concentrations, with and without the addition of fixed amounts of N-acetyl-D-glucosamine. […]"}},
  "data": [
    {"smiles": "CC(=O)N[C@H]1C(O)O[C@H](CO)[C@@H](O)[C@@H]1O", "note": "(stereo partly drawn) [N-acetyl-D-glucosamine, 2-acetamido-2-deoxy-D-glucose]", "values": [
      {"measurement": "total chitinase activity lost", "setting": "[1]", "result": 30, "unit": "%"},
      {"measurement": "inhibition at 40000 µM", "setting": "[2]; 10 min, pH 7, 40-mM NAG in the assay media, p-nitrophenyl substrate analog, culture supernatant, read-out: chitobiase activity drop", "result": 70, "unit": "%"},
      {"measurement": "Ki", "setting": "[2]; noncompetitive inhibition, substrate p-nitrophenyl N-acetyl-β-D-glucosaminide, 0-1.67 mM NAG, calculated from Eadie-Hofstee analysis, read-out: inhibition constant Ki", "result": 1000, "unit": "µM"}
    ]}
  ]
}
